# Results: patent US20030134859A1 (SANKYO COMPANY, LIMITED, priority 2000, published 2003)
# Experiments:
# TNF-α production = assay: Inhibitory activity against cytokine (TNF-α) production in LPS-stimulated RAW264.7 cells; format: cell-based, mouse; conditions: 1 μM test compound, LPS 10 ng/mL; for inhibition at 1 µM: Mus musculus, RAW264.7, 15 h
# How it was run: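 Mouse RAW264.7 macrophages (5,000 cells/well) stimulated with 10 ng/mL LPS (final) and treated with test compound at 1 μM final for 15 h at 37 °C. Supernatant mouse TNF-α measured by ELISA; % inhibition = 100−(A−B)/(C−B)×100, using unstimulated and LPS-only controls.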
# Rat white adipocytes = assay: Stimulation of differentiation of the adipocytes (Oil Red O); format: cell-based; conditions: 100 nM test compound, 5 days, Oil Red O ABS550, control = 100%, blank = 0%, Table 7; for activity at 0.1 µM: Rattus norvegicus, Adipocyte, 120 h, read-out: Rate of Differentiation (%)
# How it was run: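 Rat white adipocytes, 5,000 cells/well, cultured 5 days in differentiation-inducing medium with test compound at final 100 nM (0.1% DMSO). Cells fixed, stained with Oil Red O, dye extracted in DMSO and read at 550 nm; differentiation rate expressed relative to vehicle control (100%) and cell-free blank (0%).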
SMILES,inhibition at 1 µM (TNF-α production) [%],activity at 0.1 µM (Rat white adipocytes) [%],Inhibitory Activity (%) against TNF-α production (TNF-α production; 15 hr) [%],Rate of Differentiation (%) (Rat white adipocytes)
"Cc1csc(NC(=O)c2cc([N+](=O)[O-])ccc2Cl)n1 [Example 3, N-(4-Methylthiazol-2-yl)-(2-chloro-5-nitrophenyl)carboxamide]",17,126,–,–
"O=C(Nc1nc2ccc(Cc3ccc(F)cc3)cc2s1)c1cc([N+](=O)[O-])ccc1Cl [Example 90, N-[6-(4-Fluorobenzyl)benzothiazol-2-yl]-(2-chloro-5-nitrophenyl)carboxamide]",19.4,131,–,–
"O=C(Nc1ccc(-c2ccc(O)cc2)cc1)c1cc([N+](=O)[O-])ccc1Cl [Example 135, N-[4-(4-Hydroxyphenyl)phenyl]-2-(chloro-5-nitrophenyl)carboxamide]",–,–,16.6,128.0
